# Data published in patent publication US8778951B2, “Heteroaryl compounds and their uses” (Novartis AG, priority 2009, dated 2014).
# Biological target: Cdk9/cyclinT1 (Homo sapiens (Human), UniProt P50750)
# Experiment: Cdk9/CyclinT1 IMAP Protocol (fluorescence polarization kinase assay)
# Format: biochemical
# Conditions: Table 2; generated using one of the two Cdk9/cyclinT1 assays (IMAP or Alpha Screen), not specified which; unit inferred
# How it was run: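 Reaction used 4 nM Cdk9/cyclinT1, 100 nM 5TAMRA-cdk7tide peptide and 6 uM ATP in 100 mM Tris pH 7.2 with MgCl2, 0.01% Tween-20, 1 mM DTT and 2.5% DMSO, running 4.5 h. Phosphopeptide was captured by IMAP binding reagent for >1 h, then read by fluorescence polarization (ex 531/em 595 nm).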
# Chain of Cdk9/cyclinT1 (P50750 whole entry): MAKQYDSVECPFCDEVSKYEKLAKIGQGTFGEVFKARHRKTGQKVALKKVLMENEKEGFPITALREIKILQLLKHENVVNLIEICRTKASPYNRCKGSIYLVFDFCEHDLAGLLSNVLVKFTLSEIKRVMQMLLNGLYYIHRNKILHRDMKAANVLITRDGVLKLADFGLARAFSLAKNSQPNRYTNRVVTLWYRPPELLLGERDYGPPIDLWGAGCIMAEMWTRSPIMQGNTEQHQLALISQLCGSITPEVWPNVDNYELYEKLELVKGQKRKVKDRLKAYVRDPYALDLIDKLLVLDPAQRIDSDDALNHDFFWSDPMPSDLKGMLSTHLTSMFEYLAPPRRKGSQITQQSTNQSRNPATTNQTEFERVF
# Chain of Cdk9/cyclinT1 (O60563 whole entry partner): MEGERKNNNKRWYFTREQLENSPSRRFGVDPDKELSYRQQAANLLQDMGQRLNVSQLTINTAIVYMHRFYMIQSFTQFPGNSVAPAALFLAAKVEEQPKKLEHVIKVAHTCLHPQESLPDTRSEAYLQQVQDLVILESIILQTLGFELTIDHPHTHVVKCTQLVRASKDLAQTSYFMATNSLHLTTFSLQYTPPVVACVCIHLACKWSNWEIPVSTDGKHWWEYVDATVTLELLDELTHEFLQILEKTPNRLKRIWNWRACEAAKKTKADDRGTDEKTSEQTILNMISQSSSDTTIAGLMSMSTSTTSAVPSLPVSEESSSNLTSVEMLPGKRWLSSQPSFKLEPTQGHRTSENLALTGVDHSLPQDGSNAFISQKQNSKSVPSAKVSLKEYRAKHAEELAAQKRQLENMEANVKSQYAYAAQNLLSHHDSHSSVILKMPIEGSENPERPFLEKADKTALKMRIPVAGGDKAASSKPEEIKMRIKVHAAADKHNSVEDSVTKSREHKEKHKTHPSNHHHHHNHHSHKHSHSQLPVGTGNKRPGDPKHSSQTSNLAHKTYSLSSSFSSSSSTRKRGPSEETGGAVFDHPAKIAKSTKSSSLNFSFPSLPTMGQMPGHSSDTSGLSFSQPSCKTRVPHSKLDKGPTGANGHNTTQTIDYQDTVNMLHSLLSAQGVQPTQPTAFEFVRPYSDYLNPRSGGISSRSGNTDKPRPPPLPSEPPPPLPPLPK
row,SMILES,IC50 [nM]
1,"COC[C@@H](C)N[C@H]1CC[C@H](Nc2cc(-c3nc(NCC4CCCCO4)ccc3Cl)c(Cl)cn2)CC1 (stereo in doubt) [Compound 321, 3,5′-dichloro-N2′-(trans-4-((R)-1-methoxypropan-2-yl-amino)cyclohexyl)-N6-(((S)-tetrahydro-2H-pyran-2-yl)methyl)-2,4′-bipyridine-2′,6-diamine]",11
2,Clc1cnc(N[C@H]2CC[C@H](NCC3COCCO3)CC2)cc1-c1nc(NCC2CCOCC2)ccc1Cl (stereo partly shown) [Compound 271],7.94
3,"CN(C)CC(=O)N[C@H]1CC[C@H](Nc2cc(-c3cccc(NCc4cccc(F)c4)n3)c(Cl)cn2)CC1 [Compound 7, N-(trans-4-(5′-chloro-6-(3-fluorobenzylamino)-2,4′-bipyridin-2′-yl-amino)cyclohexyl)-2-(dimethylamino)acetamide]",24.8
4,N[C@H]1CC[C@H](Nc2cc(-c3cccc(NCc4cccc(F)c4)n3)c(Cl)cn2)C1 [Compound 192],7.94
5,"CCN[C@H]1CC[C@H](Nc2cc(-c3cccc(NCC4(C#N)CCOCC4)n3)c(Cl)cn2)CC1 [Compound 360, 4-((5′-chloro-2′-((1r,4r)-4-(ethylamino)cyclohexylamino)-2,4′-bipyridin-6-ylamino)methyl)tetrahydro-2H-pyran-4-carbonitrile]",0.28
6,COC[C@@H](C)N[C@H]1CC[C@H](Nc2cc(-c3ccc(F)c(NCC4CCOCC4)n3)c(Cl)cn2)CC1 [Compound 294],1
7,Clc1cnc(N[C@@H]2CCCNC2)cc1-c1cccc(NCC2CCCCC2)n1 [Compound 89],2580
8,COCCN[C@H]1CC[C@H](Nc2cc(-c3cccc(NCc4cc(F)cc(F)c4)n3)c(Cl)cn2)CC1 [Compound 193],7.94
9,NC[C@H]1CC[C@H](Nc2cc(-c3cccc(NCc4cccnc4)n3)c(Cl)cn2)CC1 [Compound 58],31.2
10,CC(C)Nc1cc(-c2cccc(NCc3cccc(F)c3)n2)c(Cl)cn1 [Compound 172],15
11,"CC(=O)N[C@H]1CC[C@H](Nc2cc(-c3cncc(NCC4CCOCC4)n3)c(Cl)cn2)CC1 [Compound 244, N-(trans-4-(5-chloro-4-(6-((tetrahydro-2H-pyran-4-yl)methyl)aminopyrazin-2-yl)pyridin-2-yl-amino)cyclohexyl)acetamide]",79
12,COCCN[C@H]1CC[C@H](Nc2cc(-c3cncc(N(C)CC4CCOCC4)n3)c(Cl)cn2)CC1 [Compound 252],7.94
13,CN1CCN(C[C@H]2CC[C@H](Nc3cc(-c4cccc(NCc5cccc(F)c5)n4)c(Cl)cn3)CC2)CC1 [Compound 111],30.8
14,"CN(C)[C@H]1CC[C@H](Nc2cc(-c3cccc(NCC4(C#N)CCOCC4)n3)c(Cl)cn2)CC1 [Compound 361, 4-((5′-chloro-2′-((1r,4r)-4-(dimethylamino)cyclohexylamino)-2,4′-bipyridin-6-ylamino)methyl)tetrahydro-2H-pyran-4-carbonitrile]",0.3
15,"CC1(CNc2nc(-c3cc(N[C@H]4CC[C@H](N)CC4)ncc3Cl)ccc2F)CCOCC1 [Compound 312, N2′-(trans-4-aminocyclohexyl)-5′-chloro-5-fluoro-N6-((4-methyltetrahydro-2H-pyran-4-yl)methyl)-2,4′-bipyridine-2′,6-diamine]",0.3
16,N[C@H]1CCCC[C@H]1Nc1cc(-c2cccc(NCc3cccc(F)c3)n2)c(Cl)cn1 [Compound 153],1550
17,NC[C@H]1CC[C@H](Nc2cc(-c3cncc(NCC4CCOCC4)n3)c(Cl)cn2)CC1 [Compound 246],11.5

row,SMILES,IC50 [nM]
1,CC(=O)N1CCC[C@@H](CNc2cccc(-c3cc(N[C@H]4CC[C@H](N)CC4)ncc3Cl)n2)C1 [Compound 217],37.3
2,O[C@H]1CC[C@H](Nc2cc(-c3cncc(NC[C@H]4CCCOC4)n3)c(Cl)cn2)CC1 [Compound 263],7.94
3,CN(CC1CCOCC1)c1cccc(-c2cc(N[C@H]3CC[C@H](N)CC3)ncc2Cl)n1 [Compound 108],7.95
4,N[C@H]1CC[C@H](Nc2cc(-c3cccc(NCc4cccc(Br)c4)n3)c(Cl)cn2)CC1 [Compound 48],7.94
5,COc1cccc(CNc2cccc(-c3cc(N[C@H]4CC[C@H](N)CC4)ncc3Cl)n2)c1 [Compound 44],11.2
6,N[C@H]1CC[C@H](Nc2cc(-c3cccc(NCc4cccc(O)c4)n3)c(Cl)cn2)CC1 [Compound 49],14.4
7,O[C@H]1CC[C@H](Nc2cc(-c3cccc(NCC4CCOCC4)n3)c(Cl)cn2)CC1 [Compound 126],33.3
8,O[C@H]1CC[C@@H](Nc2cc(-c3cccc(NCc4cccc(F)c4)n3)c(Cl)cn2)C1 [Compound 183],7.94
9,CN1CCC[C@H]1C(=O)N[C@H]1CC[C@H](Nc2cc(-c3cccc(NCc4cccc(F)c4)n3)c(Cl)cn2)CC1 [Compound 80],31.7
10,Clc1cnc(NC[C@@H]2CCCNC2)cc1-c1cccc(NCC2CCOCC2)n1 [Compound 300],219
11,"COC[C@@H](C)N[C@H]1CC[C@H](Nc2cc(-c3ccc(F)c(NCC4(C#N)CCOCC4)n3)c(Cl)cn2)CC1 [Compound 340, 4-((5′-chloro-5-fluoro-2′-(trans-4-((R)-1-methoxypropan-2-yl-amino)cyclohexylamino)-2,4′-bipyridin-6-ylamino)methyl)tetrahydro-2H-pyran-4-carbonitrile]",0.23
12,Fc1ccc(-c2cc(N[C@H]3CC[C@H](NC4COC4)CC3)ncc2Cl)nc1NCC1CCOCC1 [Compound 281],61.2
13,Clc1cnc(N[C@H]2CC[C@H](NC[C@H]3CCCO3)CC2)cc1-c1cccc(NCC2CCOCC2)n1 [Compound 277],7.94
14,Clc1cnc(NC[C@@H]2CCCN2)cc1-c1cccc(NCC2CCOCC2)n1 [Compound 304],6190
15,N[C@H]1CC[C@H](Nc2cc(-c3cccc(NCc4ccc(OC(F)F)cc4)n3)c(Cl)cn2)CC1 [Compound 53],11.1
16,O[C@H]1CC[C@H](Nc2cc(-c3cccc(N4CCOCC4)n3)c(Cl)cn2)CC1 [Compound 131],470

# Next, values leading:
row,IC50 [nM],SMILES
1,25.6,"N[C@H]1CC[C@H](Nc2cc(-c3cccc(NCC4CCCCC4)n3)ccn2)CC1 [Compound 2, N2′-(trans-4-aminocyclohexyl)-N6-(cyclohexylmethyl)-2,4′-bipyridine-2′,6-diamine]"
2,7.95,NC[C@H]1CC[C@H](Nc2cc(-c3cccc(NCc4ccncc4)n3)c(Cl)cn2)CC1 [Compound 60]
3,2,"Fc1ccc(-c2cc(N[C@H]3CC[C@H](NCC4CCO4)CC3)ncc2Cl)nc1NCC1CCOCC1 (stereo partly drawn) [Compound 324, 5′-chloro-5-fluoro-N2′-(trans-4-(oxetan-2-yl-methylamino)cyclohexyl)-N6-((tetrahydro-2H-pyran-4-yl)methyl)-2,4′-bipyridine-2′,6-diamine]"
4,9.05,CN(C)CC(=O)NC[C@H]1CC[C@H](Nc2cc(-c3cccc(NCc4cccc(F)c4)n3)c(Cl)cn2)CC1 [Compound 82]
5,7.95,N[C@H]1CC[C@H](Nc2cc(-c3cncc(NCC4CCCOC4)n3)c(Cl)cn2)CC1 (stereo partly shown) [Compound 228]
6,23,"CCOC(=O)c1coc(N[C@H]2CC[C@H](Nc3cc(-c4cccc(NCc5cccc(F)c5)n4)c(Cl)cn3)CC2)n1 [Compound 155, Ethyl 2-(trans-4-(5′-chloro-6-(3-fluorobenzylamino)-2,4′-bipyridin-2′-yl-amino)cyclohexylamino)oxazole-4-carboxylate]"
7,14.2,O=C([C@H]1CC[C@@H](Nc2cc(-c3cccc(NCc4cccc(F)c4)n3)c(Cl)cn2)C1)N1CCCC1 [Compound 213]
8,390,O[C@H]1CC[C@H](Nc2cc(-c3cccc(NC4CCOCC4)n3)c(Cl)cn2)CC1 [Compound 129]
9,37.8,COCCN[C@H]1CC[C@H](Nc2cc(-c3nc(NCC4CCOCC4)ccc3Cl)ccn2)CC1 [Compound 274]
10,1,"CC1(CNc2cccc(-c3cc(N[C@H]4CC[C@H](N)CC4)ncc3Cl)n2)CCOCC1 [Compound 311, N2′-(trans-4-aminocyclohexyl)-5′-chloro-N6-((4-methyltetrahydro-2H-pyran-4-yl)methyl)-2,4′-bipyridine-2′,6-diamine]"
11,1,"N[C@H]1CC[C@H](Nc2cc(-c3nc(NCC4CCOCC4)ccc3Br)c(Cl)cn2)CC1 [Compound 286, N2′-(trans-4-aminocyclohexyl)-3-bromo-5′-chloro-N6-((tetrahydro-2H-pyran-4-yl)methyl)-2,4′-bipyridine-2′,6-diamine]"
12,309,Fc1ccc(CNc2cccc(-c3cc(N[C@H]4CCCNC4)ncc3Cl)n2)cc1F [Compound 100]
13,17.4,Cc1ccc(CNc2cccc(-c3cc(N[C@H]4CC[C@H](N)CC4)ncc3Cl)n2)cc1 [Compound 51]
14,37,Fc1cccc(CNc2cccc(-c3cc(NCCN4CCNCC4)ncc3Cl)n2)c1 [Compound 168]
15,19,OCCNc1cc(-c2cccc(NCc3cccc(F)c3)n2)c(Cl)cn1 [Compound 160]
16,11.1,CN(Cc1ccccc1)c1cccc(-c2cc(N[C@H]3CC[C@H](N)CC3)ncc2Cl)n1 [Compound 76]
17,1,"COC[C@@H](C)N[C@H]1CC[C@H](Nc2cc(-c3nc(NC[C@@H]4CCCOC4)ccc3Cl)c(Cl)cn2)CC1 [Compound 323, 3,5′-dichloro-N2′-(trans-4-((R)-1-methoxypropan-2-yl-amino)cyclohexyl)-N6-(((S)-tetrahydro-2H-pyran-3-yl)methyl)-2,4′-bipyridine-2′,6-diamine]"
18,7.95,"CNC[C@H]1CC[C@H](Nc2cc(-c3cccc(NCc4cccc(F)c4)n3)c(Cl)cn2)CC1 [Compound 22, 5′-chloro-N6-(3-fluorobenzyl)-N2′-(trans-4-((methylamino)methyl)cyclohexyl)-2,4′-bipyridine-2′,6-diamine]"
19,31.8,"CN(CC1CCOCC1)c1cncc(-c2cc(N[C@H]3CC[C@H](CN)CC3)ncc2Cl)n1 [Compound 249, 6-(2-(trans-4-(aminomethyl)cyclohexylamino)-5-chloropyridin-4-yl)-N-methyl-N-((tetrahydro-2H-pyran-4-yl)methyl)pyrazin-2-amine]"
